According to publication PMC7604503, “Cyclic peptides can engage a single binding pocket through highly divergent modes” (Proceedings of the National Academy of Sciences of the …, 2020):
Where a SMILES comes first, the peptide text is derived from it. Bridges are numbered along the chain shown (N, C = ends).

Experiments:
Assay in all cases: BROMOscan competition binding assay (BromoMAX, Eurofins DiscoverX)
BRDT(2) = target: T1, BRDT(2) (Homo sapiens, UniProt Q58F21); conditions: for Percent Control BRDT(2): compound concentration 1000 nM, lower percentage control = stronger affinity
T1 construct: BRDT(2); purchased Eurofins DiscoverX (BROMOscan, BromoMAX)

BRD1 = target: T2, BRD1 (Homo sapiens, UniProt O95696); conditions: for Percent Control BRD1: compound concentration 1000 nM, lower percentage control = stronger affinity
T2 construct: purchased Eurofins DiscoverX (BROMOscan, BromoMAX)
T2 sequence (O95696 1-1058): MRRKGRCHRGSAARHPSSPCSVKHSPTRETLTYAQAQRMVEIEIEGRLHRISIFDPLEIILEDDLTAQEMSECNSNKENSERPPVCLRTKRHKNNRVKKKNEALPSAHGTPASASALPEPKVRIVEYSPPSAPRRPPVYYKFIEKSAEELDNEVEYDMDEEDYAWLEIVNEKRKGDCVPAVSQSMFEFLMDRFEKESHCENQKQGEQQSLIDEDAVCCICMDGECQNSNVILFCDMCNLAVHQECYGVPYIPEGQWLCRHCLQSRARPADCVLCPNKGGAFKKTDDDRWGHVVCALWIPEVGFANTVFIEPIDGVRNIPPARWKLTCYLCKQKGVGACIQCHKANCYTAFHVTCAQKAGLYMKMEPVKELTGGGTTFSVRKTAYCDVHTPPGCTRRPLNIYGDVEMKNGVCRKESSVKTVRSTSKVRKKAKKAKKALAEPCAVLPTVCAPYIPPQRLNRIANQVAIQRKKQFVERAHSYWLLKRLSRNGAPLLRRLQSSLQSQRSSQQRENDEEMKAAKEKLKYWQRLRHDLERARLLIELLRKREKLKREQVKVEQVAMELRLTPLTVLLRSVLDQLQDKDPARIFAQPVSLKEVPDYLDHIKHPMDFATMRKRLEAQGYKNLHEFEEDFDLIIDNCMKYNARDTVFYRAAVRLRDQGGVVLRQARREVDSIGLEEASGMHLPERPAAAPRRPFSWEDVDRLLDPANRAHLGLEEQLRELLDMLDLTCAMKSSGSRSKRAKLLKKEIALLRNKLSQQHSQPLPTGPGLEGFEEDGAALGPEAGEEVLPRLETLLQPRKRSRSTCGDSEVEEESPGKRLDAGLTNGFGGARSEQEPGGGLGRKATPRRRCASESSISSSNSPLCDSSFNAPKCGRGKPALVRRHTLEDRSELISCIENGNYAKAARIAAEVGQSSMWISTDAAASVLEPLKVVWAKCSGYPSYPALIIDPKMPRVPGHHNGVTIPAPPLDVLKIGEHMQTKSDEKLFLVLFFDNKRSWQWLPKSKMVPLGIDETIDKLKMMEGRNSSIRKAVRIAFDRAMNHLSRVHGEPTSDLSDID

BRD7 = target: T3, BRD7 (Homo sapiens, UniProt Q9NPI1); conditions: for Percent Control BRD7: compound concentration 1000 nM, lower percentage control = stronger affinity
T3 construct: purchased Eurofins DiscoverX (BROMOscan, BromoMAX)
T3 sequence (Q9NPI1 1-651): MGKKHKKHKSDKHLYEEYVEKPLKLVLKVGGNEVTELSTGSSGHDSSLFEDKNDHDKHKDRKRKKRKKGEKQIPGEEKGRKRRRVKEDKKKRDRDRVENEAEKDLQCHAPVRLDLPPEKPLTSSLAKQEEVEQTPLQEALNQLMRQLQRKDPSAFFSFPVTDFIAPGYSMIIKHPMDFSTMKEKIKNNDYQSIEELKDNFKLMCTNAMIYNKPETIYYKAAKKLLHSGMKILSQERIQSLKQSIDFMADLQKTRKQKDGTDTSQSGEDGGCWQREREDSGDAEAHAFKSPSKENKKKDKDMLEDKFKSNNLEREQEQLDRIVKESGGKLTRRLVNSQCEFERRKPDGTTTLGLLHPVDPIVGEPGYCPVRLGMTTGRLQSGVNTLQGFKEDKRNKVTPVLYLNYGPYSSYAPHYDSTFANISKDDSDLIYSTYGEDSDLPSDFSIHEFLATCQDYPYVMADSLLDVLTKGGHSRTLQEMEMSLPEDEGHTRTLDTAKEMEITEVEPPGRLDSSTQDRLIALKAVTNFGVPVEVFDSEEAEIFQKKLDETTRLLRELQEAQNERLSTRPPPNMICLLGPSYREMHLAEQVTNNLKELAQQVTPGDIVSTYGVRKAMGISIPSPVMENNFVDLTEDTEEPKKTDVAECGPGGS

PCAF = target: T4, PCAF (Homo sapiens, UniProt Q92831); conditions: for Percent Control PCAF: compound concentration 1000 nM, lower percentage control = stronger affinity
T4 construct: purchased Eurofins DiscoverX (BROMOscan, BromoMAX)

PBRM1(5) = target: T5, PBRM1(5) (Homo sapiens, UniProt Q86U86); conditions: for Percent Control PBRM1(5): compound concentration 1000 nM, lower percentage control = stronger affinity
T5 construct: PBRM1(5); purchased Eurofins DiscoverX (BROMOscan, BromoMAX)

BAZ2B = target: T6, BAZ2B (Homo sapiens, UniProt Q9UIF8); conditions: for Percent Control BAZ2B: compound concentration 1000 nM, lower percentage control = stronger affinity
T6 construct: purchased Eurofins DiscoverX (BROMOscan, BromoMAX)
T6 sequence (Q9UIF8 whole entry): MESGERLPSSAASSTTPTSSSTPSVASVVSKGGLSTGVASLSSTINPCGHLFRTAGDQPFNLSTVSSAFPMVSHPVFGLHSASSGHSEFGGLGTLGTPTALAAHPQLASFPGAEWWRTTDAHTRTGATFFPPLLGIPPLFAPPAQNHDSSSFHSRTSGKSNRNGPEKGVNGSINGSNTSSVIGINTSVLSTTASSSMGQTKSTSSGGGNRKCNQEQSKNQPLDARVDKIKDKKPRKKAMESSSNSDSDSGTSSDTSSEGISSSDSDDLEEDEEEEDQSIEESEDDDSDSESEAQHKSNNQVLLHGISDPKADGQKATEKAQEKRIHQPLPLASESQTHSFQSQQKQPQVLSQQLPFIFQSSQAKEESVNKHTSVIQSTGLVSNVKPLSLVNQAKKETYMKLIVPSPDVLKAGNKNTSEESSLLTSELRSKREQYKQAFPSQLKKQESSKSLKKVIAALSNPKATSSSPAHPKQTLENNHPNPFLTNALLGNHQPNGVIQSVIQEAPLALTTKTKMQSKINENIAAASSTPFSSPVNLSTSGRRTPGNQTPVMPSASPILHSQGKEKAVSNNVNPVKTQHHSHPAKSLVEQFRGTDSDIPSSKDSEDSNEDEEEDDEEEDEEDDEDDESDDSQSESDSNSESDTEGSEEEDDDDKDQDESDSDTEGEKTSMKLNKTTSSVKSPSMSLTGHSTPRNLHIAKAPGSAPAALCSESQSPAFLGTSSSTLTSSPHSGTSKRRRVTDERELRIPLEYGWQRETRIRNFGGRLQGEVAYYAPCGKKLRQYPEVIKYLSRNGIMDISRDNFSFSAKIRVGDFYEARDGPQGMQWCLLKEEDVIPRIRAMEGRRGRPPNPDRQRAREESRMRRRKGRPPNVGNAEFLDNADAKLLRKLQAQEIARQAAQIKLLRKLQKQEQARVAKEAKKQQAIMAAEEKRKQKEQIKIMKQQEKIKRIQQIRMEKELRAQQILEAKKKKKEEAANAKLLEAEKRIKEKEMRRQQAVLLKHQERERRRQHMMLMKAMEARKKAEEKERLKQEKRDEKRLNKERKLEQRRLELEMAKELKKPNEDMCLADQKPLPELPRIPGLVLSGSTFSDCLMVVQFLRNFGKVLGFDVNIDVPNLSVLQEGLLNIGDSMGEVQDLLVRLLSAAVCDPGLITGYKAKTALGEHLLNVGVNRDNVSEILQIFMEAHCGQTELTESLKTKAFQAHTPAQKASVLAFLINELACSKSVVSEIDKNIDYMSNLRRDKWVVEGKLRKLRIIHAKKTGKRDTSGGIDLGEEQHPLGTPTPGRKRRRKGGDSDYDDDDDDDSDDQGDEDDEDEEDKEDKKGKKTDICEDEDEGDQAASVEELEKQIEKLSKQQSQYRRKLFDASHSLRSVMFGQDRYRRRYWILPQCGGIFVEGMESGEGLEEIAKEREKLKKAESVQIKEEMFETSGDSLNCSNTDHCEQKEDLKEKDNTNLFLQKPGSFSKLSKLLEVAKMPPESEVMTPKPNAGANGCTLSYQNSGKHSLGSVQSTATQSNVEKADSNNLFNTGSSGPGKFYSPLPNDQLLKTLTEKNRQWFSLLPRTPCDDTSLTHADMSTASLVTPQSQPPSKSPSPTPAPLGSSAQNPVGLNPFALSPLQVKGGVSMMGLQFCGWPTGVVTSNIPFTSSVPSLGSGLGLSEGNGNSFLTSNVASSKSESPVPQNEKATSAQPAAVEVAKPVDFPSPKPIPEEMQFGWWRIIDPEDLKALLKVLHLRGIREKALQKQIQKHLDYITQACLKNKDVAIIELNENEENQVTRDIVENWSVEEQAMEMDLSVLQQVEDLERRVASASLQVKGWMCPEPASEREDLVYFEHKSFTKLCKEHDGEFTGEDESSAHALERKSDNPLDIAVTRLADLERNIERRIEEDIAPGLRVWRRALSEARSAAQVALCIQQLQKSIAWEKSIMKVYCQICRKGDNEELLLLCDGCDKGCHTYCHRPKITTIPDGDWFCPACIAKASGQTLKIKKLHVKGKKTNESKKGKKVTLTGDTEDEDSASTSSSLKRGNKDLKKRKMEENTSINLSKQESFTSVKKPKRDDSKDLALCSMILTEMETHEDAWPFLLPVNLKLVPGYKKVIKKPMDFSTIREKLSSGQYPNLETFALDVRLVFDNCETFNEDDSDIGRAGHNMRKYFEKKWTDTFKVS

T5 sequence (Q86U86 645-766 limits assumed): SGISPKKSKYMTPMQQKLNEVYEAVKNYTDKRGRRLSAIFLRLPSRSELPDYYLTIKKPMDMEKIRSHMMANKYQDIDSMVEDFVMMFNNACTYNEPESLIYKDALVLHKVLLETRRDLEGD
T4 sequence (Q92831 whole entry): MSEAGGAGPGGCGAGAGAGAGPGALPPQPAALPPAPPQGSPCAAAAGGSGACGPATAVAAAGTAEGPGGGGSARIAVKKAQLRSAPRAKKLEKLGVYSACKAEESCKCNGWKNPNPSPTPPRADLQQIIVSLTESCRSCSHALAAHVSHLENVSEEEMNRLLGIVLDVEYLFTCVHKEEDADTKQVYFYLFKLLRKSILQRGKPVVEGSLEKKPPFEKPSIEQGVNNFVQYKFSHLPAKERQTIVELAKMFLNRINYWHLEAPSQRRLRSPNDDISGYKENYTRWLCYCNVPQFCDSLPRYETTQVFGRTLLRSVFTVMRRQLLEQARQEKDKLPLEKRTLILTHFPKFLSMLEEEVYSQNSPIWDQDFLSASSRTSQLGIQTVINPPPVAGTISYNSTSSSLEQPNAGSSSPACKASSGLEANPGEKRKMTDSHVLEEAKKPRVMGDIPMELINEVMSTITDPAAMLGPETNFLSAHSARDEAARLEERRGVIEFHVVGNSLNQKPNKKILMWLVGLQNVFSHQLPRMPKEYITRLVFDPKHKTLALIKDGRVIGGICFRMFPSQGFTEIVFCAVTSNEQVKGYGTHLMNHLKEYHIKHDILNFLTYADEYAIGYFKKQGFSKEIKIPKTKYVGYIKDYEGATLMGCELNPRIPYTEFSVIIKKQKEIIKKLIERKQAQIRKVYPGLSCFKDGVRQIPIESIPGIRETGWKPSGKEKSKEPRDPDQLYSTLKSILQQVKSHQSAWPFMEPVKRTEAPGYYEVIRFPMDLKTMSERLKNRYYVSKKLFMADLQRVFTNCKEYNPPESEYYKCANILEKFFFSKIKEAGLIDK

Compound | Percent Control BRDT(2) (BRDT(2)) [%] | Percent Control BRD1 (BRD1) [%] | Percent Control BRD7 (BRD7) [%] | Percent Control PCAF (PCAF) [%] | Percent Control PBRM1(5) (PBRM1(5)) [%] | Percent Control BAZ2B (BAZ2B) [%] | percent of control binding at 1 µM (BRDT(2)) [%] | percent of control binding at 1 µM (BRD1) [%] | remaining binding at 1 µM (BRD7; read-out: Percent Control BRD7) [%] | percent of control binding at 1 µM (PCAF) [%] | remaining binding at 1 µM (PBRM1(5); read-out: Percent Control PBRM1(5)) [%] | remaining binding at 1 µM (BAZ2B; read-out: Percent Control BAZ2B) [%]
CC[C@H](C)[C@@H]1NC(=O)[C@H]([C@@H](C)O)NC(=O)[C@H](CCCCN)NC(=O)[C@H](Cc2c[nH]c3ccccc23)NC(=O)CSC[C@@H](C(N)=O)NC(=O)[C@H](CCC(N)=O)NC(=O)[C@H](CCCCNC(C)=O)NC(=O)[C@H]([C@@H](C)O)NC(=O)[C@H](CCCNC(=N)N)NC(=O)[C@H](Cc2c[nH]c3ccccc23)NC(=O)[C@H]([C@@H](C)O)NC(=O)[C@H](CCCCNC(C)=O)NC(=O)CNC(=O)[C@H](CCCCNC(C)=O)NC1=O [3.1B] ({CH2CO}-WKTIK(Ac)GK(Ac)TWRTK(Ac)QC-NH2; thioether N-14) | 100 | 100 | 99 | 94 | 100 | 100 |  |  |  |  |  | 
CC[C@H](C)[C@@H]1NC(=O)[C@H](Cc2c[nH]c3ccccc23)NC(=O)[C@H](Cc2c[nH]c3ccccc23)NC(=O)CSC[C@@H](C(N)=O)NC(=O)CNC(=O)[C@H](CCCCNC(C)=O)NC(=O)[C@H](CCCCN)NC(=O)[C@H](C(C)C)NC(=O)[C@H](CCCCNC(C)=O)NC(=O)[C@@H]2CCCN2C(=O)[C@H]([C@@H](C)CC)NC1=O [3.1C] ({CH2CO}-WWIIPK(Ac)VKK(Ac)GC-NH2; thioether N-11) | 4.9 | 97 | 96 | 96 | 89 | 100 |  |  |  |  |  | 
CC[C@H](C)[C@H](NC(=O)[C@H](CCCNC(=N)N)NC(=O)[C@H](CCCCNC(C)=O)NC(=O)[C@H](CCCNC(=N)N)NC(=O)[C@H](CC(C)C)NC(=O)[C@@H]1CSCC(=O)N[C@@H](Cc2c[nH]c3ccccc23)C(=O)N[C@@H](CCCCNC(C)=O)C(=O)NCC(=O)N[C@@H](Cc2ccc(O)cc2)C(=O)N[C@@H](CC(C)C)C(=O)N1)C(=O)N[C@@H](CCC(N)=O)C(=O)N[C@@H](CCCNC(=N)N)C(=O)N[C@H](C(=O)N[C@@H](Cc1ccc(O)cc1)C(=O)N[C@@H](CC(N)=O)C(N)=O)[C@@H](C)O [4.2C] ({CH2CO}-WK(Ac)GYLCLRK(Ac)RIQRTYN-NH2; thioether N-6) |  |  |  |  |  |  | 92 | 84 | 97 | 100 | 90 | 99
